Measurements taken from paper PMC11651915, “Small molecule protein assembly modulators with pan-cancer therapeutic efficacy” (Open Biology, 2024).

Experiments:
SW1353 = test: Eurofins OncoPanel (CellTiter-Glo); assay type: cell-based; conditions: Homo sapiens, 72 h, 3 days
in vivo = conditions: female, Balb/c, mouse, ip
HT-29 = test: In-house cancer cell viability screen (AlamarBlue); assay type: cell-based; conditions: Homo sapiens, 72 h
SK-MEL-28 = test: cells; conditions: Homo sapiens, SK-MEL-28, 48 h
LNCaP C-33 cells = test: Cell growth recovery assay; assay type: cell-based, human; conditions: PAV-617 0.3 µM 24 h, PAV-951 0.4 µM 6 h, followed
A549 = test: In-house cancer cell viability screen (AlamarBlue); assay type: cell-based, human; conditions: for IC50: Homo sapiens, AlamarBlue
SW-620 = test: cells; assay type: cell-based; conditions: Homo sapiens, NCI-60, 48 h
PC-3 = test: cells; assay type: cell-based; conditions: Homo sapiens, NCI-60, 48 h
MCF7 [1] = test: Eurofins OncoPanel (CellTiter-Glo); assay type: cell-based; conditions: Homo sapiens, 72 h, 3 days
FaDu = test: Eurofins OncoPanel (CellTiter-Glo); assay type: cell-based; conditions: Homo sapiens, 72 h, 3 days
U251 = test: cells; conditions: Homo sapiens, U-251, 48 h
SF-295 = test: cells; conditions: Homo sapiens, SF-295, 48 h
HS 578T = test: cells; conditions: Homo sapiens, 48 h
SJSA1-OSA = test: Eurofins OncoPanel (CellTiter-Glo); assay type: cell-based; conditions: Homo sapiens, 72 h, 3 days
A549/ATCC = test: cells; assay type: cell-based; conditions: Homo sapiens, NCI-60, 48 h
T-47D = test: cells; assay type: cell-based; conditions: Homo sapiens, T47D, NCI-60, 48 h
H9 = test: Eurofins OncoPanel (CellTiter-Glo); assay type: cell-based; conditions: Homo sapiens, 72 h, 3 days
COR-L105 = test: Eurofins OncoPanel (CellTiter-Glo); assay type: cell-based; conditions: Homo sapiens, 72 h, 3 days
MALME-3M = test: cells; assay type: cell-based; conditions: Homo sapiens, NCI-60, 48 h
[2] = tested on: A549 human lung cancer xenograft; test: A549 xenograft studies; conditions: A549 xenograft, PAV-951 study, 14 days, IV; PAV-951 1.5 mg kg^−1 once daily, Gemcitabine 100 mg kg^−1 twice weekly
MCF7 [3] = test: cells; conditions: Homo sapiens, MCF7, 48 h
UACC-257 = test: cells; conditions: Homo sapiens, UACC-257, 48 h
SNB-75 = test: cells; conditions: Homo sapiens, SNB-75, 48 h
DB = test: Eurofins OncoPanel (CellTiter-Glo); assay type: cell-based; conditions: Homo sapiens, 72 h, 3 days
NCI-H226 = test: cells; conditions: Homo sapiens, NCI-H226, 48 h
BFTC-905 = test: Eurofins OncoPanel (CellTiter-Glo); assay type: cell-based; conditions: Homo sapiens, 72 h, 3 days
NCI/ADR-RES = test: cells; conditions: Homo sapiens, 48 h
A172 = test: Eurofins OncoPanel (CellTiter-Glo); assay type: cell-based; conditions: Homo sapiens, A 172, 72 h, 3 days
ACHN = test: cells; conditions: Homo sapiens, 48 h
COLO 205 = test: cells; assay type: cell-based; conditions: Homo sapiens, NCI-60, 48 h
Hs 294T = test: Eurofins OncoPanel (CellTiter-Glo); assay type: cell-based; conditions: Homo sapiens, 72 h, 3 days
MDA MB 436 = test: Eurofins OncoPanel (CellTiter-Glo); assay type: cell-based; conditions: Homo sapiens, 72 h, 3 days
SK-MEL-5 = test: cells; conditions: Homo sapiens, SK-MEL-5, 48 h
RPMI-8226 = test: cells; assay type: cell-based; conditions: Homo sapiens, NCI-60, 48 h
U2OS = test: Eurofins OncoPanel (CellTiter-Glo); assay type: cell-based; conditions: Homo sapiens, 72 h, 3 days
[4] = tested on: BB5 patient biopsy derived cell line (breast adenocarcinoma); test: BB1 and BB5 adenoma versus carcinoma screen (confocal imaging); assay type: cell-based; conditions: Homo sapiens, 60 h, percent ChromaLive negative
CAKI-1 = test: cells; assay type: cell-based; conditions: Homo sapiens, NCI-60, 48 h
SNB-19 = test: cells; conditions: Homo sapiens, SNB-19, 48 h
MDA-MB-231/ATCC = test: cells; conditions: Homo sapiens, MDA-MB-231, 48 h
CCRF-CEM = test: cells; assay type: cell-based; conditions: Homo sapiens, NCI-60, 48 h
SF-539 = test: cells; conditions: Homo sapiens, SF-539, 48 h
[5] = tested on: A549 human lung cancer xenograft; conditions: mouse, in vivo
KM12 = test: cells; conditions: Homo sapiens, KM12, 48 h
PANC-1 = test: In-house cancer cell viability screen (AlamarBlue); assay type: cell-based; conditions: Homo sapiens, 72 h

Compound: CC(C)CCNc1ncnc2cc(N3CCN(c4ccc5c(NCCC(C)C)ncnc5c4)CC3)ccc12 [PAV-951]
- IC50 (SW1353): 2210 nM
- MTD (in vivo): 2.5 mg/kg
- IC50 (HT-29): 101 nM
- GI50 (SK-MEL-28): 1330 nM
- CC50 (SK-MEL-28; read-out: LC50): 5240 nM
- recovery of cell growth after removal of compound (LNCaP C-33 cells): did not recover
- change of potency when compound is added at the time of plating rather than 24 h later (A549; A549): increased significantly
- IC50 (A549; A549 (treatment 0 h after plating)): 2160 nM
- IC50 (A549; A549 (treatment 24 h after plating), 72 h): 10900 nM
- GI50 (SW-620): 194 nM
- GI50 (PC-3): 399 nM
- IC50 (MCF7 [1]): 1990 nM
- IC50 (FaDu): 523 nM
- GI50 (U251): 213 nM
- CC50 (U251; read-out: LC50): 910 nM
- GI50 (SF-295): 1640 nM
- CC50 (SF-295; read-out: LC50): 5590 nM
- GI50 (HS 578T): 352 nM
- CC50 (HS 578T; read-out: LC50): > 100000 nM
- IC50 (SJSA1-OSA): 724 nM
- GI50 (A549/ATCC): 302 nM
- GI50 (T-47D): 952 nM
- IC50 (H9): 165 nM
- IC50 (COR-L105): 962 nM
- GI50 (MALME-3M): 1520 nM
- tumour growth inhibition (TGI) [2]: 72%
- GI50 (MCF7 [3]): 177 nM
- CC50 (MCF7 [3]; read-out: LC50): 924 nM
- GI50 (UACC-257): 1710 nM
- CC50 (UACC-257; read-out: LC50): 5980 nM
- GI50 (SNB-75): 304 nM
- CC50 (SNB-75; read-out: LC50): 4140 nM
- IC50 (DB): 895 nM
- GI50 (NCI-H226): 1760 nM
- CC50 (NCI-H226; read-out: LC50): 6810 nM
- IC50 (BFTC-905): 701 nM
- GI50 (NCI/ADR-RES): 401 nM
- CC50 (NCI/ADR-RES; read-out: LC50): 4850 nM
- IC50 (A172): 1020 nM
- GI50 (ACHN): 586 nM
- CC50 (ACHN; read-out: LC50): 4280 nM
- GI50 (COLO 205): 610 nM
- IC50 (Hs 294T): 1100 nM
- IC50 (MDA MB 436): 1460 nM
- GI50 (SK-MEL-5): 1870 nM
- CC50 (SK-MEL-5; read-out: LC50): 9120 nM
- GI50 (RPMI-8226): 213 nM
- IC50 (U2OS): 368 nM
- IC50 [4]: 500 nM
- GI50 (CAKI-1): 311 nM
- GI50 (SNB-19): 1170 nM
- CC50 (SNB-19; read-out: LC50): 5180 nM
- GI50 (MDA-MB-231/ATCC): 488 nM
- CC50 (MDA-MB-231/ATCC; read-out: LC50): 4420 nM
- GI50 (CCRF-CEM): 198 nM
- GI50 (SF-539): 683 nM
- CC50 (SF-539; read-out: LC50): 4530 nM
- adverse effects at the doses of the xenograft studies [5]: without any serious adverse effects
- GI50 (KM12): 227 nM
- CC50 (KM12; read-out: LC50): 3850 nM
- IC50 (PANC-1): 244 nM
